# Measurements: PubChem BioAssay (NCI)
#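 Results reflect a 48-hour exposure of cells in 96-well plates to compound at five concentrations. TGI: total growth inhibition.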
# Columns and labels:
# Assay in all cases: growth of human tumour cells (NCI), 48 h
# [1] = tested on: 786-0 renal
# [2] = tested on: A498 renal
# [3] = tested on: A549 NSCLC
# [4] = tested on: ACHN renal
# [5] = tested on: BT-549 breast
# [6] = tested on: CAKI-1 renal
# [7] = tested on: CCRF-CEM leukemia
# [8] = tested on: COLO 205 colon
# [9] = tested on: DU-145 prostate
# [10] = tested on: EKVX NSCLC
# [11] = tested on: HCC-2998 colon
# [12] = tested on: HCT-116 colon
# [13] = tested on: HCT-15 colon
# [14] = tested on: HL-60(TB) leukemia
# [15] = tested on: HOP-62 NSCLC
# [16] = tested on: HOP-92 NSCLC
# [17] = tested on: HS 578T breast
# [18] = tested on: HT29 colon
# [19] = tested on: IGROV1 ovarian
# [20] = tested on: K-562 leukemia
# [21] = tested on: KM12 colon
# [22] = tested on: LOX IMVI melanoma
# [23] = tested on: M14 melanoma
# [24] = tested on: MALME-3M melanoma
# [25] = tested on: MCF7 breast
# [26] = tested on: MDA-MB-231 breast
# [27] = tested on: MDA-MB-435
# [28] = tested on: MDA-N
# [29] = tested on: MOLT-4 leukemia
# [30] = tested on: NCI-H23 lung
# [31] = tested on: NCI-H460 lung
# [32] = tested on: NCI-H522 lung
# [33] = tested on: NCI/ADR-RES ovarian
# [34] = tested on: OVCAR-3 ovarian
# [35] = tested on: OVCAR-4 ovarian
# [36] = tested on: OVCAR-5 ovarian
# [37] = tested on: OVCAR-8 ovarian
# [38] = tested on: PC-3 prostate
# [39] = tested on: RPMI-8226 leukemia
# [40] = tested on: RXF 393 renal
# [41] = tested on: SF-268 CNS
# [42] = tested on: SF-295 CNS
# [43] = tested on: SF-539 CNS
# [44] = tested on: SK-MEL-2 melanoma
# [45] = tested on: SK-MEL-28 melanoma
# [46] = tested on: SK-MEL-5 melanoma
# [47] = tested on: SK-OV-3 ovarian
# [48] = tested on: SN12C renal
# [49] = tested on: SNB-19 CNS
# [50] = tested on: SNB-75 CNS
# [51] = tested on: SW-620 colon
# [52] = tested on: T-47D breast
# [53] = tested on: TK-10 renal
# [54] = tested on: U251 CNS
# [55] = tested on: UACC-257 melanoma
# [56] = tested on: UACC-62 melanoma
# [57] = tested on: UO-31 renal
# [58] = tested on: NCI-H226 lung
structure (smiles),measurement,setting,value
CCOC(=O)C1=C(C)NC(C)=C(C(=O)OCC)C1c1ccc(Cl)cc1,TGI,[1],26.5 µM
same,TGI,[2],31.2 µM
same,TGI,[3],34.3 µM
same,TGI,[4],30.8 µM
same,TGI,[5],32.7 µM
same,TGI,[6],30.7 µM
same,TGI,[7],28.3 µM
same,TGI,[8],32.4 µM
same,TGI,[9],31.9 µM
same,TGI,[10],31.3 µM
same,TGI,[11],30.4 µM
same,TGI,[12],22 µM
same,TGI,[13],41.6 µM
same,TGI,[14],8.15 µM
same,TGI,[15],30.8 µM
same,TGI,[16],24 µM
same,TGI,[17],42.2 µM
same,TGI,[18],24.8 µM
same,TGI,[19],30.9 µM
same,TGI,[20],44.6 µM
same,TGI,[21],40.4 µM
same,TGI,[22],34.4 µM
same,TGI,[23],31 µM
same,TGI,[24],34.6 µM
same,TGI,[25],38.7 µM
same,TGI,[26],33.6 µM
same,TGI,[27],28.9 µM
same,TGI,[28],26.9 µM
same,TGI,[29],24.8 µM
same,TGI,[30],32.1 µM
same,TGI,[31],19.9 µM
same,TGI,[32],32.2 µM
same,TGI,[33],48.1 µM
same,TGI,[34],30.5 µM
same,TGI,[35],26.9 µM
same,TGI,[36],27 µM
same,TGI,[37],41.4 µM
same,TGI,[38],33.9 µM
same,TGI,[39],52.8 µM
same,TGI,[40],28.3 µM
same,TGI,[41],34.6 µM
same,TGI,[42],26.3 µM
same,TGI,[43],37.3 µM
same,TGI,[44],34.5 µM
same,TGI,[45],37 µM
same,TGI,[46],28.1 µM
same,TGI,[47],31.7 µM
same,TGI,[48],34.5 µM
same,TGI,[49],31.3 µM
same,TGI,[50],33.5 µM
same,TGI,[51],36.2 µM
same,TGI,[52],35.2 µM
same,TGI,[53],29.2 µM
same,TGI,[54],34.6 µM
same,TGI,[55],27.4 µM
same,TGI,[56],26.7 µM
same,TGI,[57],36.4 µM
O=C(O)C(F)(F)C(F)(F)C(F)(F)C(F)(F)C(F)(F)C(F)(F)C(F)(F)C(F)(F)F,TGI,[1],> 100 µM
same,TGI,[2],> 100 µM
same,TGI,[3],> 100 µM
same,TGI,[4],> 100 µM
same,TGI,[5],> 100 µM
same,TGI,[6],> 100 µM
same,TGI,[7],> 100 µM
same,TGI,[8],> 100 µM
same,TGI,[9],> 100 µM
same,TGI,[10],> 100 µM
same,TGI,[11],> 100 µM
same,TGI,[12],> 100 µM
same,TGI,[13],> 100 µM
same,TGI,[14],62.4 µM
same,TGI,[15],> 100 µM
same,TGI,[16],58.7 µM
same,TGI,[17],> 100 µM
same,TGI,[18],> 100 µM
same,TGI,[19],> 100 µM
same,TGI,[20],92.4 µM
same,TGI,[21],> 100 µM
same,TGI,[22],> 100 µM
same,TGI,[23],> 100 µM
same,TGI,[24],> 100 µM
same,TGI,[25],> 100 µM
same,TGI,[26],> 100 µM
same,TGI,[27],> 100 µM
same,TGI,[28],> 100 µM
same,TGI,[29],> 100 µM
same,TGI,[58],> 100 µM
same,TGI,[30],> 100 µM
same,TGI,[31],> 100 µM
same,TGI,[32],> 100 µM
same,TGI,[33],> 100 µM
same,TGI,[34],> 100 µM
same,TGI,[35],> 100 µM
same,TGI,[36],> 100 µM
same,TGI,[37],> 100 µM
same,TGI,[38],> 100 µM
same,TGI,[40],> 100 µM
same,TGI,[41],> 100 µM
same,TGI,[42],> 100 µM
same,TGI,[43],> 100 µM
same,TGI,[45],> 100 µM
same,TGI,[46],> 100 µM
same,TGI,[47],86.6 µM
same,TGI,[48],> 100 µM
same,TGI,[49],> 100 µM
same,TGI,[50],> 100 µM
same,TGI,[51],> 100 µM
same,TGI,[52],> 100 µM
same,TGI,[53],> 100 µM
same,TGI,[54],> 100 µM
same,TGI,[55],> 100 µM
same,TGI,[56],> 100 µM
same,TGI,[57],> 100 µM
CC1(C)Cc2c(c3ccccc3c3nc4c(nc23)c2c(c3ccccc34)OC(C)(C)C2)O1,TGI,[1],> 100 µM
same,TGI,[2],> 100 µM
same,TGI,[3],> 100 µM
same,TGI,[4],> 100 µM
same,TGI,[5],> 100 µM
same,TGI,[6],> 100 µM
same,TGI,[7],> 100 µM
same,TGI,[8],> 100 µM
same,TGI,[9],> 100 µM
same,TGI,[10],> 100 µM
same,TGI,[11],> 100 µM
same,TGI,[12],> 100 µM
same,TGI,[13],> 100 µM
same,TGI,[14],> 100 µM
same,TGI,[15],> 100 µM
same,TGI,[16],> 100 µM
same,TGI,[17],> 100 µM
same,TGI,[18],> 100 µM
same,TGI,[19],> 100 µM
same,TGI,[21],> 100 µM
same,TGI,[22],> 100 µM
same,TGI,[23],> 100 µM
same,TGI,[24],> 100 µM
same,TGI,[25],> 100 µM
same,TGI,[26],> 100 µM
same,TGI,[27],> 100 µM
same,TGI,[28],> 100 µM
same,TGI,[29],> 100 µM
same,TGI,[30],> 100 µM
same,TGI,[31],> 100 µM
same,TGI,[32],> 100 µM
same,TGI,[33],> 100 µM
same,TGI,[34],> 100 µM
same,TGI,[35],> 100 µM
same,TGI,[36],> 100 µM
same,TGI,[37],> 100 µM
same,TGI,[38],> 100 µM
same,TGI,[39],> 100 µM
same,TGI,[40],> 100 µM
same,TGI,[41],> 100 µM
same,TGI,[42],> 100 µM
same,TGI,[43],> 100 µM
same,TGI,[44],> 100 µM
same,TGI,[45],> 100 µM
same,TGI,[46],> 100 µM
same,TGI,[47],> 100 µM
same,TGI,[48],> 100 µM
same,TGI,[49],> 100 µM
same,TGI,[51],> 100 µM
same,TGI,[52],> 100 µM
same,TGI,[53],> 100 µM
same,TGI,[54],> 100 µM
same,TGI,[55],> 100 µM
same,TGI,[56],> 100 µM
Oc1ccc(C=NCC2CCCN3CCCCC23)cc1 (stereo unspecified),TGI,[1],36.7 µM
same,TGI,[2],83.9 µM
same,TGI,[3],> 62.8 µM
same,TGI,[4],34.9 µM
same,TGI,[5],61.5 µM
same,TGI,[6],39.5 µM
same,TGI,[8],> 66.7 µM
same,TGI,[9],31.3 µM
same,TGI,[10],> 75.4 µM
same,TGI,[11],40.4 µM
same,TGI,[12],49.5 µM
same,TGI,[13],63 µM
same,TGI,[15],> 75.1 µM
same,TGI,[16],67.3 µM
same,TGI,[17],85.5 µM
same,TGI,[18],30.7 µM
same,TGI,[19],> 67.8 µM
same,TGI,[20],> 100 µM
same,TGI,[21],35.3 µM
same,TGI,[22],> 100 µM
same,TGI,[23],> 57.6 µM
same,TGI,[24],74.1 µM
same,TGI,[25],> 100 µM
same,TGI,[26],74.8 µM
same,TGI,[27],27 µM
same,TGI,[28],39.4 µM
same,TGI,[29],> 100 µM
same,TGI,[58],58.4 µM
same,TGI,[30],> 62 µM
same,TGI,[31],73.4 µM
same,TGI,[32],47.3 µM
same,TGI,[33],> 100 µM
same,TGI,[34],> 69.3 µM
same,TGI,[35],42.3 µM
same,TGI,[36],> 59.5 µM
same,TGI,[37],> 100 µM
same,TGI,[38],> 100 µM
same,TGI,[39],86 µM
same,TGI,[40],43.9 µM
same,TGI,[41],> 68.5 µM
same,TGI,[42],> 76.9 µM
same,TGI,[43],> 100 µM
same,TGI,[44],49.4 µM
same,TGI,[45],38.6 µM
same,TGI,[46],51.4 µM
same,TGI,[47],97.4 µM
same,TGI,[48],41.9 µM
same,TGI,[49],63.3 µM
same,TGI,[50],> 96.5 µM
same,TGI,[52],71.3 µM
same,TGI,[53],55.5 µM
same,TGI,[54],34.8 µM
same,TGI,[55],62.3 µM
same,TGI,[56],> 69.5 µM
same,TGI,[57],> 56.7 µM
O=C(CCN1CCOCC1)c1ccc(Oc2ccc(F)cc2)cc1,TGI,[1],30.8 µM
same,TGI,[2],> 100 µM
same,TGI,[3],> 100 µM
same,TGI,[4],32.1 µM
same,TGI,[5],35.9 µM
same,TGI,[6],33 µM
same,TGI,[7],57.1 µM
same,TGI,[8],47 µM
same,TGI,[9],> 100 µM
same,TGI,[10],36.9 µM
same,TGI,[11],> 100 µM
same,TGI,[12],44.2 µM
same,TGI,[13],36.5 µM
same,TGI,[14],78.7 µM
same,TGI,[15],> 100 µM
same,TGI,[16],49.5 µM
same,TGI,[17],40.8 µM
same,TGI,[18],34.2 µM
same,TGI,[19],39.4 µM
same,TGI,[20],51.4 µM
same,TGI,[21],32.6 µM
same,TGI,[22],48.5 µM
same,TGI,[23],38.3 µM
same,TGI,[24],40.9 µM
same,TGI,[25],40.4 µM
same,TGI,[26],39 µM
same,TGI,[27],> 100 µM
same,TGI,[28],52.3 µM
same,TGI,[29],55.2 µM
same,TGI,[58],78 µM
same,TGI,[30],70.4 µM
same,TGI,[31],> 100 µM
same,TGI,[33],69 µM
same,TGI,[34],50.7 µM
same,TGI,[35],> 100 µM
same,TGI,[36],54.2 µM
same,TGI,[37],41.7 µM
same,TGI,[38],34.2 µM
same,TGI,[42],> 100 µM
same,TGI,[43],38.7 µM
same,TGI,[44],57.1 µM
same,TGI,[45],52.2 µM
same,TGI,[46],> 100 µM
same,TGI,[47],> 100 µM
same,TGI,[48],> 100 µM
same,TGI,[49],> 100 µM
same,TGI,[50],46.2 µM
same,TGI,[51],62.6 µM
same,TGI,[52],42.6 µM
same,TGI,[53],32.5 µM
same,TGI,[54],> 100 µM
same,TGI,[55],32.9 µM
same,TGI,[56],37 µM
same,TGI,[57],38.3 µM
